Measured values: ChEMBL document CHEMBL3217480, “Cytotoxic sugar analogues of an optimized novobiocin scaffold” (Medchemcomm, 2010)
Each block holds one compound with its values, some of them ahead of it. Activity calls are given as the source filed them. The calls are words filed in the database; no cut-off is given here.

Columns and labels:
LNCaP = test: Inhibition of human LNCAP cell proliferation; assay type: functional, cell-based
[1] = Inhibition of human PL45 cell proliferation; assay type: functional, cell-based
MCF7 [2] = test: Antiproliferative activity against estrogen receptor positive human MCF7 cells after 72 hrs by MTS assay; assay type: functional, cell-based; details: MCF7, 72 h
PC-3 = test: Inhibition of human PC3 cell proliferation; assay type: functional, cell-based
[3] = Inhibition of human SKBR3 cell proliferation; assay type: functional, cell-based; details: SK-BR-3
HCT-116 = test: Inhibition of human HCT116 cell proliferation; assay type: functional, cell-based
[4] = Inhibition of human Jurkat T cell cell proliferation; assay type: functional, cell-based
[5] = Antiproliferative activity against estrogen receptor-negative, Her2 overexpressing human SKBR3 cells after 72 hrs by MTS assay; assay type: functional, cell-based; details: SK-BR-3, 72 h
[6] = molecular target: Heat shock protein HSP 90-beta (Homo sapiens) (UniProt P08238); test: Inhibition of HSP90-dependent client protein Akt degradation in human MCF7 cells after 24 hrs by Western blot analysis; assay type: cell-based
MCF7 [7] = test: Effect on Hsp90 protein expression in human MCF7 cells at 0.5 to 25 uM after 24 hrs by Western blot analysis; assay type: functional, cell-based
[8] = molecular target: Heat shock protein HSP 90-beta (Homo sapiens) (UniProt P08238); test: Inhibition of HSP90-dependent client protein Her-2 degradation in human MCF7 cells after 24 hrs by Western blot analysis; assay type: cell-based
MCF7 [9] = test: Effect on actin expression in human MCF7 cells at 0.5 to 25 uM after 24 hrs by Western blot analysis; assay type: ADME, cell-based; details: mcf7, 24 h
[10] = molecular target: Heat shock protein HSP 90-beta (Homo sapiens) (UniProt P08238); test: Inhibition of HSP90-dependent client protein Raf degradation in human MCF7 cells after 24 hrs by Western blot analysis; assay type: cell-based

Chain of Heat shock protein HSP 90-beta (Homo sapiens) (P08238 whole entry): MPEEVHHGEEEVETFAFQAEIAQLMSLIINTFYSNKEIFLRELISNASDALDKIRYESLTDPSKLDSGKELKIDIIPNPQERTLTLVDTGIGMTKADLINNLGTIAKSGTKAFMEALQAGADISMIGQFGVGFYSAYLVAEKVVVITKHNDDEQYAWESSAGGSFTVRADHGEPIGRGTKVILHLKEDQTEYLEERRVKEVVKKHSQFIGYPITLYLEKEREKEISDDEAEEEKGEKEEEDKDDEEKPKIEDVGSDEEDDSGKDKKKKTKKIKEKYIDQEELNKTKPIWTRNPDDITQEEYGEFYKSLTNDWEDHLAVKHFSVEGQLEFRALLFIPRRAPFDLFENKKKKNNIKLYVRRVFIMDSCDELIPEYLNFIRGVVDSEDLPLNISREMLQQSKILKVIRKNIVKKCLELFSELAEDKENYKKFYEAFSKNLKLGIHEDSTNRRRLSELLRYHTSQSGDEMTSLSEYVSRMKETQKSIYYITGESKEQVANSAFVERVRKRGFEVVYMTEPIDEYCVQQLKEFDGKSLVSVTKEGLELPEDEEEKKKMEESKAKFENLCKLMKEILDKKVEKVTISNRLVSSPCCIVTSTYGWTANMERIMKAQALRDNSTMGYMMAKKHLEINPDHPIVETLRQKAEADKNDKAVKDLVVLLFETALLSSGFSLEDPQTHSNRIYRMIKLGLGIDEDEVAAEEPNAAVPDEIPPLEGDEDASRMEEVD

Compound: COc1cccc(-c2cc(C(=O)Nc3cc4ccc(O[C@H]5C[C@H](O)CCO5)c(C)c4oc3=O)ccc2OC)c1
- IC50 (MCF7 [2]): 11.2 µM
- IC50 [5]: 9.28 µM

Compound: CNC(=O)Oc1ccc2cc(NC(=O)c3ccc(OC)c(-c4cccc(OC)c4)c3)c(=O)oc2c1C
- inhibition [6]: Dose-dependent effect
- Activity (MCF7 [7]): inactive
- inhibition [8]: Dose-dependent effect
- Activity (MCF7 [9]): Non-toxic
- inhibition [10]: Dose-dependent effect

Compound: COc1cccc(-c2cc(C(=O)Nc3cc4ccc(O[C@@H]5OC(C)(C)[C@H](OC)[C@@H](O)[C@H]5O)c(C)c4oc3=O)ccc2OC)c1
- IC50 (MCF7 [2]): 18.7 µM
- IC50 [3]: 7.5 µM
- IC50 [5]: 7.5 µM

Compound: COc1cccc(-c2cc(C(=O)Nc3cc4cc(OC)c(O[C@@H]5OC(C)(C)[C@H](OC)[C@@H](O)[C@H]5O)c(C)c4oc3=O)ccc2OC)c1
- IC50 (MCF7 [2]): > 100 µM
- IC50 [3]: 58.8 µM
- IC50 [5]: 58.8 µM

Further lines, with some results ahead:

- IC50 (LNCaP): 0.42 µM
- IC50 (MCF7 [2]): 1.5 µM
- IC50 (PC-3): 0.97 µM
- IC50 (HCT-116): 0.52 µM
Compound: COc1cccc(-c2cc(C(=O)Nc3cc4cc(OC)c(OC(C)=O)c(C)c4oc3=O)ccc2OC)c1
- IC50 [1]: 4.1 µM
- IC50 [3]: 5.72 µM
- IC50 [4]: 0.42 µM

- IC50 (MCF7 [2]): > 100 µM
Compound: COc1cccc(-c2cc(C(=O)Nc3cc4ccc(O[C@@H]5CCC[C@@H](O)[C@H]5O)c(C)c4oc3=O)ccc2OC)c1
- IC50 [5]: > 100 µM

- inhibition [6]: Dose-dependent effect
- inhibition [8]: Dose-dependent effect
- inhibition [10]: Dose-dependent effect
Compound: COc1cccc(-c2cc(C(=O)Nc3cc4ccc(OC5CCN(C)CC5)c(C)c4oc3=O)ccc2OC)c1
- Activity (MCF7 [7]): inactive
- Activity (MCF7 [9]): Non-toxic

- IC50 (MCF7 [2]): 9.18 µM
Compound: COc1cccc(-c2cc(C(=O)Nc3cc4ccc(OC5CCCN(C(C)=O)C5)c(C)c4oc3=O)ccc2OC)c1 (centres undefined)
- IC50 [5]: 10.8 µM
